Data reported in US20100298141A1, “SUBSTITUTED PYRIDINE N-OXIDE HERBICIDES” (E. I. DU PONT DE NEMOURS AND COMPANY, priority 2007, published 2010).

Tests used:
soybean = experiment: Test C pre-/postemergence test; type: in vivo, Glycine max
Method in brief: (§1)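 Compounds in a non-phytotoxic solvent with surfactant applied preemergence to seeded pots and, at the same time, postemergence to plants 2–18 cm tall (1- to 4-leaf stage). Paddy tests: pots flooded to 3 cm, compound applied into the water, depth held throughout.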

yellow nutsedge = experiment: Test C pre-/postemergence test; type: in vivo, Cyperus esculentus
Method in brief: as §1

pigweed = experiment: Test C pre-/postemergence test; type: in vivo, Amaranthus retroflexus
Method in brief: as §1

Italian ryegrass = experiment: Test C pre-/postemergence test; type: in vivo, Lolium multiflorum
Method in brief: as §1

Goosegrass = experiment: Test C pre-/postemergence test; type: in vivo, Eleusin indica
Method in brief: as §1

umbrella sedge = experiment: Test C flooded paddy test; type: in vivo, Cyperus difformis; details: Flood, 62 g ai/ha; scale 0 to 100 (0 no effect, 100 complete control)
Method in brief: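 Test compounds are applied straight into paddy water held 3 cm above the soil surface, with that flood maintained for the whole test. After 13 to 15 days in the greenhouse, each species is scored visually relative to controls.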

wheat [1] = experiment: Test A pre-/postemergence greenhouse test; type: in vivo, Triticum aestivum; details: for Plant response rating, Wheat: 0 to 100 scale where 0 is no effect and 100 is complete control; for Wheat plant response rating: 0 to 100 scale
Method in brief: (§2)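 Herbicidal effect is a visual injury score given about ten days post-treatment by comparison with untreated controls. Preemergence plots received a directed spray onto sown loam–sand soil; postemergence plants, at the one- to two-leaf stage and 2–10 cm tall, were sprayed at the same time.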

morningglory [2] = experiment: Test A pre-/postemergence greenhouse test; type: in vivo, Ipomoea spp.; details: for Plant response rating, Morningglory: 0 to 100 scale where 0 is no effect and 100 is complete control; for Morningglory plant response rating: 0 to 100 scale
Method in brief: as §2

bermudagrass = experiment: Test C pre-/postemergence test; type: in vivo, Cynodon dactylon
Method in brief: as §1

wheat [3] = experiment: Test C pre-/postemergence test; type: in vivo, Triticum aestivum
Method in brief: as §1

giant foxtail = experiment: Test A pre-/postemergence greenhouse test; type: in vivo, Setaria faberi; details: for Plant response rating, Foxtail, Giant: 0 to 100 scale where 0 is no effect and 100 is complete control; for Foxtail, Giant plant response rating: 0 to 100 scale
Method in brief: as §2

crabgrass = experiment: Test A pre-/postemergence greenhouse test; type: in vivo, Digitaria sanguinalis; details: for Plant response rating, Crabgrass, Large: 0 to 100 scale where 0 is no effect and 100 is complete control; for Crabgrass, Large plant response rating: 0 to 100 scale
Method in brief: as §2

corn = experiment: Test A pre-/postemergence greenhouse test; type: in vivo, Zea mays; details: for Plant response rating, Corn: 0 to 100 scale where 0 is no effect and 100 is complete control; for Corn plant response rating: 0 to 100 scale
Method in brief: as §2

[4] = tested on: common (oilseed) sunflower; experiment: Test C pre-/postemergence test; type: in vivo, Helianthus annuus
Excerpt: Seeds of plant species selected from blackgrass (Alopecurus myosuroides), downy brome (Bromus tectorum), green foxtail (Setaria viridis), Italian ryegrass (Lolium multiflorum), wheat (Triticum aestivum), wild oat (Avena fatua), catchweed bedstraw (Galium aparine), Russian thistle (Salsola kali), […] (Cynodon dactylon), Surinam grass (Brachiaria decumbens), cocklebur (Xanthium strumarium), corn (Zea mays), crabgrass (Digitaria sanguinalis), woolly cupgrass (Eriochloa villosa), giant foxtail (Setaria faberii), Goosegrass (Eleusin indica), johnsongrass (Sorghum halepense), kochia (Kochia scoparia), lambsquarters (Chenopodium album), morningglory (Ipomoea coccinea), eastern black nightshade (Solanum ptycanthum), yellow nutsedge (Cyperus esculentus), pigweed (Amaranthus retroflexus), common ragweed (Ambrosia elation), soybean (Glycine max), common (oilseed) sunflower (Helianthus annuus), and velvetleaf (Abutilon theophrasti) were planted and treated preemergence with test chemicals formulated in a non-phytotoxic solvent mixture which included a surfactant. At the same time, plants selected from these crop and weed species and also winter barley (Hordeum vulgare), canarygrass (Phalaris minor), and chickweed (Stellaria media) were treated with postemergence applications of some of the test chemicals formulated in the same manner. Plants ranged in height from 2 to 18 cm (1- to 4-leaf stage) for postemergence treatments. […] At time of treatment, test pots were flooded to 3 cm above the soil surface, treated by application of test compounds directly to the paddy water, and then maintained at that water depth for the duration of the test. […] A dash (-) response means no test result.

morningglory [5] = experiment: Test C pre-/postemergence test; type: in vivo, Ipomoea coccinea
Method in brief: as §1

[6] = 62 g ai/ha, Preemergence, scale 0 to 100
[7] = 125 g ai/ha, preemergence, scale 0 (no effect) to 100 (complete control)
[8] = Postemergence, 125 g ai/ha, scale 0 to 100, 0 no effect, 100 complete control
[9] = Postemergence, 250 g ai/ha, scale 0 to 100, 0 no effect, 100 complete control
[10] = Preemergence, 31 g ai/ha, scale 0 to 100 (0 no effect, 100 complete control)
[11] = preemergence, 250 g ai/ha, scale 0 (no effect) to 100 (complete control)
[12] = Postemergence, 62 g ai/ha, scale 0 to 100, 0 no effect, 100 complete control
[13] = Postemergence, 500 g ai/ha, 0 is no effect, 100 is complete control
[14] = Preemergence, 125 g ai/ha, 0 no effect, 100 complete control

Cn1nc(C(F)(F)F)c(C[S+]([O-])c2ccc(F)c[n+]2[O-])c1OCC(F)(F)F (centres unmarked) [Compound 67]
Soybean plant response rating (soybean; [6]): 80
Soybean plant response rating (soybean; [7]): 100
Plant response rating (0 to 100), Soybean (soybean; Postemergence, 31 g ai/ha): 0
Plant response rating (0 to 100), Soybean (soybean; Postemergence, 62 g ai/ha): 40
Plant response rating, Soybean (soybean; [8]): 50
Plant response rating, Soybean (soybean; [9]): 80
Plant response rating, Soybean (soybean; [10]): 0
Soybean plant response rating (soybean; [11]): 100
Nutsedge, Yellow plant response rating (yellow nutsedge; [6]): 40
Nutsedge, Yellow plant response rating (yellow nutsedge; [7]): 40
Plant response rating (0 to 100), Nutsedge, Yellow (yellow nutsedge; Postemergence, 31 g ai/ha): 0
Plant response rating, Nutsedge, Yellow (yellow nutsedge; [12]): 0
Plant response rating, Nutsedge, Yellow (yellow nutsedge; [8]): 0
Plant response rating, Nutsedge, Yellow (yellow nutsedge; [9]): 0
Plant response rating, Nutsedge, Yellow (yellow nutsedge; [10]): 0
Nutsedge, Yellow plant response rating (yellow nutsedge; [11]): 60
Pigweed plant response rating (pigweed; [6]): 55
Pigweed plant response rating (pigweed; [7]): 100
Plant response rating (0 to 100), Pigweed (pigweed; Postemergence, 31 g ai/ha): 0
Plant response rating (0 to 100), Pigweed (pigweed; Postemergence, 62 g ai/ha): 0
Plant response rating, Pigweed (pigweed; [8]): 0
Plant response rating, Pigweed (pigweed; [9]): 60
Plant response rating, Pigweed (pigweed; [10]): 50
Pigweed plant response rating (pigweed; [11]): 100
Ryegrass, Italian plant response rating (Italian ryegrass; [6]): 100
Ryegrass, Italian plant response rating (Italian ryegrass; [7]): 100
Plant response rating (0 to 100), Ryegrass, Italian (Italian ryegrass; Postemergence, 31 g ai/ha): 0
Plant response rating (0 to 100), Ryegrass, Italian (Italian ryegrass; Postemergence, 62 g ai/ha): 40
Plant response rating, Ryegrass, Italian (Italian ryegrass; [8]): 90
Plant response rating, Ryegrass, Italian (Italian ryegrass; [9]): 90
Plant response rating, Ryegrass, Italian (Italian ryegrass; [10]): 100
Ryegrass, Italian plant response rating (Italian ryegrass; [11]): 100
Goosegrass plant response rating (Goosegrass; [6]): 100
Goosegrass plant response rating (Goosegrass; [7]): 100
Plant response rating (0 to 100), Goosegrass (Goosegrass; Postemergence, 31 g ai/ha): 0
Plant response rating, Goosegrass (Goosegrass; [12]): 0
Plant response rating, Goosegrass (Goosegrass; [8]): 50
Plant response rating, Goosegrass (Goosegrass; [9]): 90
Plant response rating, Goosegrass (Goosegrass; [10]): 100
Goosegrass plant response rating (Goosegrass; [11]): 100
Plant response rating, Sedge, Umbrella (umbrella sedge): 100
Plant response rating, Wheat (wheat [1]; Postemergence, 125 g ai/ha): 60
Wheat plant response rating (wheat [1]; [13]): 70
Wheat plant response rating (wheat [1]; [14]): 60
Plant response rating, Wheat (wheat [1]; Preemergence, 500 g ai/ha): 100
Plant response rating, Morningglory (morningglory [2]; Postemergence, 125 g ai/ha): 70
Morningglory plant response rating (morningglory [2]; [13]): 100
Morningglory plant response rating (morningglory [2]; [14]): 70
Plant response rating, Morningglory (morningglory [2]; Preemergence, 500 g ai/ha): 100
Bermudagrass plant response rating (bermudagrass; 62 g ai/ha, Preemergence, scale 0 to 100 (0 no effect, 100 complete control)): 100
Bermudagrass plant response rating (bermudagrass; [7]): 100
Plant response rating (0 to 100), Bermudagrass (bermudagrass; Postemergence, 31 g ai/ha): 0
Plant response rating, Bermudagrass (bermudagrass; [12]): 0
Plant response rating, Bermudagrass (bermudagrass; [8]): 0
Plant response rating, Bermudagrass (bermudagrass; [9]): 70
Plant response rating, Bermudagrass (bermudagrass; [10]): 90
Bermudagrass plant response rating (bermudagrass; [11]): 100
Wheat plant response rating (wheat [3]; [6]): 98
Wheat plant response rating (wheat [3]; [7]): 100
Plant response rating (0 to 100), Wheat (wheat [3]; Postemergence, 31 g ai/ha): 25
Plant response rating (0 to 100), Wheat (wheat [3]; Postemergence, 62 g ai/ha): 30
Plant response rating, Wheat (wheat [3]; [8]): 70
Plant response rating, Wheat (wheat [3]; [9]): 85
Plant response rating, Wheat (wheat [3]; [10]): 40
Wheat plant response rating (wheat [3]; [11]): 100
Plant response rating, Foxtail, Giant (giant foxtail; Postemergence, 125 g ai/ha): 90
Foxtail, Giant plant response rating (giant foxtail; [13]): 100
Foxtail, Giant plant response rating (giant foxtail; [14]): 100
Plant response rating, Foxtail, Giant (giant foxtail; Preemergence, 500 g ai/ha): 100
Plant response rating, Crabgrass, Large (crabgrass; Postemergence, 125 g ai/ha): 90
Crabgrass, Large plant response rating (crabgrass; [13]): 90
Crabgrass, Large plant response rating (crabgrass; [14]): 100
Plant response rating, Crabgrass, Large (crabgrass; Preemergence, 500 g ai/ha): 100
Plant response rating, Corn (corn; Postemergence, 125 g ai/ha): 60
Corn plant response rating (corn; [13]): 90
Corn plant response rating (corn; [14]): 0
Plant response rating, Corn (corn; Preemergence, 500 g ai/ha): 80
Sunflower plant response rating [4, 6]: 85
Sunflower plant response rating [4, 7]: 100
Plant response rating, Sunflower [4, 10]: 45
Sunflower plant response rating [4, 11]: 100
Morningglory plant response rating (morningglory [5]; [6]): 95
Morningglory plant response rating (morningglory [5]; [7]): 100
Plant response rating (0 to 100), Morningglory (morningglory [5]; Postemergence, 31 g ai/ha): 0
Plant response rating, Morningglory (morningglory [5]; [12]): 0
Plant response rating, Morningglory (morningglory [5]; [8]): 0
Plant response rating, Morningglory (morningglory [5]; [9]): 0
Plant response rating, Morningglory (morningglory [5]; [10]): 60
Morningglory plant response rating (morningglory [5]; [11]): 100
